Data taken from a melting point compilation (Tetko et al.; mined from patent text by program, amines drawn as free bases though some values may be those of a salt).

Q: For c1cncc(OCCCCCCOc2cccnc2)c1, which melting point is on record?
A: 85 °C

Q: Which melting point does the source give for O=C(NCc1cccnc1)Nc1ccc(S)cc1 here?
A: 155 to 159 °C

Q: With COC(=O)C(C)(C(=O)O)N1C(=O)CCC(N2C(=O)c3ccccc3C2=O)C1=O (stereo not given) as the compound, how does the melting point read?
A: 143 to 146 °C

Q: With Nc1ccn(C[C@@H]2O[C@H](CO)[C@@H](O)[C@@H]2O)c(=O)n1 as the compound, how does the melting point read?
A: 230 to 232 °C

Q: For Cc1cccc(C#N)c1[N+](=O)[O-], which melting point is on record?
A: 74.5 to 77 °C

Q: With N#Cc1ccc2ccc(CBr)cc2c1 as the compound, how does the melting point read?
A: 110 to 116 °C

Q: For CC(C)N(CCS(=O)(=O)c1ccc(F)cc1)C(=O)Oc1ccccc1, which melting point is on record?
A: 94 to 95 °C

Q: With COc1cc2c(cc1OC)CN(CCN(C)Cc1ccc(NC(=O)c3cccc4c(=O)c5cccc(OC)c5[nH]c34)cc1)CC2 as the compound, how does the melting point read?
A: 202 °C

Q: Which melting point does the source give for Cc1ccc(S(=O)(=O)N2[C@@H](Cc3nc(C)no3)CC[C@H]2c2ccc(F)cc2)cc1 (racemic) here?
A: 103 °C

Q: Which melting point does the source give for CCOc1nc2cccc(C(=O)OC)c2n1Cc1ccc(-c2ccccc2-c2nc(=O)s[nH]2)cc1 here?
A: 211 to 212 °C

Q: For O=C(C=Cc1ccc(Cl)c(C(F)(F)F)c1)NN1CC(=O)NC1=O, which melting point is on record?
A: 270 to 273 °C

Q: Which melting point does the source give for CC(=O)OC1(C(=O)CCl)CCC2C3CCC4=CC(=O)CCC4(C)C3CCC21C (stereo not given) here?
A: 219 to 221 °C

Q: With CNC(=O)/C(=N/OC)c1ccccc1Oc1ccc(C)c(C)c1 as the compound, how does the melting point read?
A: 98 to 100 °C

Q: Which melting point does the source give for CS(=O)(=O)c1ccc(-c2cnn(-c3ccc(Cl)s3)c(=O)c2-c2ccc(F)cc2)cc1 here?
A: 190 to 192 °C

Q: With Cc1cc(-c2nc3cccnn3c2-c2ccnc(NC(=O)c3ccc(Cl)cc3)c2)ccc1F as the compound, how does the melting point read?
A: 207 to 209 °C

Q: Which melting point does the source give for CC(NC(=O)OC(C)(C)C)C(=O)Nc1cc(OCC(F)(F)F)ccc1-c1cccnc1 (stereo not given) here?
A: 149 to 152 °C

Q: With COC(=O)C(=Cc1ccccc1)c1ccc2nc(-c3ccccc3)oc2c1 as the compound, how does the melting point read?
A: 184 to 185 °C

Q: Which melting point does the source give for Nc1nnc(N2CCN(CCOc3ccc(Br)cc3)CC2)[nH]1 here?
A: 166 to 167 °C

Q: Which melting point does the source give for CCCN1CCN(Cc2nc(-c3ccc4c(c3)Nc3ccccc3S4)cs2)CC1 here?
A: 189 to 190 °C

Q: With O=C(O)CCc1oc(N2CCOCC2)nc1-c1ccc(Cl)cc1 as the compound, how does the melting point read?
A: 180 to 181 °C

Q: Which melting point does the source give for N=C(N)c1ccc(N2CCN(C3CCC(CCC(=O)O)CC3)C2=O)cc1 (stereo not given) here?
A: > 200 °C

Q: For COc1ccc([C@@H]2Cc3c(cccc3C(F)(F)F)N(CC3=NCCN3C(=O)OC(C)(C)C)C(=O)[C@@H]2O)cc1, which melting point is on record?
A: 116 °C

Q: Which melting point does the source give for CCCCCCCOc1ccc2c(c1)Nc1cccc(S(=O)(=O)N(C)C)c1S2 here?
A: 160 to 162 °C

Q: With CC(C)c1nc(N)c(N)c(=O)[nH]1 as the compound, how does the melting point read?
A: 198 to 200 °C

Q: For Clc1cc2c(cc1Br)C(=C1CCNCC1)c1ncccc1CO2, which melting point is on record?
A: 198 to 199 °C

Q: Which melting point does the source give for O=C(N[C@H](Cc1cccc(OC(F)(F)C(F)F)c1)[C@@H](O)c1cccc(F)n1)c1cccc2c1C=CCCC2 (racemic) here?
A: 151 to 152 °C

Q: For CC(C)(Cc1ccc(Cl)cc1)C(O)(Cn1ccnc1)c1ccc(Cl)cc1 (stereo not given), which melting point is on record?
A: 174 °C

Q: For Cc1c(C(F)(F)F)nc(C(F)(F)F)c(C(=O)O)c1O, which melting point is on record?
A: 155 to 159 °C

Q: With COc1cc(OCc2cccc([N+](=O)[O-])c2)ccc1C(C)=O as the compound, how does the melting point read?
A: 111 to 114 °C

Q: Which melting point does the source give for CCc1nn(C2CCCC2)c2cc(C(=O)Nc3cccnc3)ccc12 here?
A: 133 to 135 °C

Q: For Cn1nc(-c2cc(C=O)c(Cl)cc2F)c(Cl)c1OC(F)F, which melting point is on record?
A: 95 to 98 °C

Q: With COC(=O)/C=C/n1cnc2ccc(O)cc2c1=O as the compound, how does the melting point read?
A: 252 to 256 °C

Q: For CCOC(=O)N1CCN(C=C2C(=O)Nc3cc(OC)c(OC)cc32)CC1, which melting point is on record?
A: 172 to 174 °C

Q: With COc1cccc(CC(=O)O)c1OCCCc1cn(-c2cccc(C(F)(F)F)n2)nc1C(C)C as the compound, how does the melting point read?
A: 95 to 97 °C

Q: Which melting point does the source give for CCSc1nc(-c2ccc(OC)cc2)c(-c2ccc(OC)cc2)s1 here?
A: 73 to 75 °C

Q: Which melting point does the source give for COc1ccc(C(=O)Nc2cc(NC(=O)c3cccc(N(C)C)c3)ccc2Cl)cc1OC here?
A: 98 to 99 °C

Q: For O=C(NC(=O)c1c(Cl)cccc1Cl)Nc1ccc(OC(F)(F)C(Cl)Cl)cc1, which melting point is on record?
A: 211 to 213 °C

Q: For O=c1c2ccc(Cl)cc2[nH]n1Cc1ccccc1, which melting point is on record?
A: 209 to 214 °C

Q: For CCSCCn1cc(C(=O)NCc2ccc(Cl)cc2)c(=O)c2cc(CN3CCOCC3)ccc21, which melting point is on record?
A: 140 to 142 °C

Q: Which melting point does the source give for COC[C@@H](C)n1cc(Cl)nc(N2CCc3cc(Cl)cc(Cl)c32)c1=O here?
A: 93 to 95 °C

Q: For O=C(COc1ccc2c(c1)OCO2)c1ccccc1, which melting point is on record?
A: 123 to 126 °C

Q: Which melting point does the source give for Cc1nc(-c2ccccc2)nc(-c2ccncc2)c1C(=O)O here?
A: 270 to 271 °C

Q: Which melting point does the source give for Cc1ccccc1N=c1scc(-c2ccc(Cl)c(S(=O)(=O)N(C)C)c2)n1C here?
A: 158 to 162 °C

Q: For CCOC(=O)/C=C(\c1ccc(C)cc1)c1ccc(OC)c(OC)c1, which melting point is on record?
A: 69 to 70 °C

Q: With CCC(=O)NN(C(C)=O)[C@@H]1c2cc(C#N)ccc2OC(C)(C)[C@H]1O (relative stereo) as the compound, how does the melting point read?
A: 201 to 203 °C

Q: Which melting point does the source give for CCCCOP(=O)(OCCCC)OCN1C(=O)NC(c2ccccc2)(c2ccccc2)C1=O here?
A: 94.8 to 96.9 °C

Q: For CN1CCC(c2c[nH]c3ccc(Sc4ccccc4)cc23)CC1, which melting point is on record?
A: 147 to 150 °C

Q: With CCC(O)(c1ccc(O)cc1O)c1ccccc1OC (stereo not given) as the compound, how does the melting point read?
A: 141 to 142 °C

Q: With CCCCCCCCCCCCC1=C(OC(=O)CC)C(=O)c2ccccc2C1=O as the compound, how does the melting point read?
A: 42 to 44 °C

Q: For O=C1c2cccc([N+](=O)[O-])c2C(=O)c2cccc(O)c21, which melting point is on record?
A: 299 to 302 °C

Q: Which melting point does the source give for CC(C(=O)N(C)C)n1cc(Br)c(-c2ccccc2)n1 (stereo not given) here?
A: 90.5 to 91.5 °C

Q: With COc1ccc2oc(N)c(C#N)c(=O)c2c1 as the compound, how does the melting point read?
A: 320 °C

Q: For Cc1c(C(=O)Nc2ccc(N3CCN(CCOCCO)CC3)c(C#N)c2)cnn1-c1ccc(Cl)cc1, which melting point is on record?
A: 196 °C

Q: With COCCNC(=O)c1ccc(C(=O)N2CCN(c3ncccc3NC(C)C)CC2)nc1 as the compound, how does the melting point read?
A: 122 to 124 °C

Q: For O=C(O)C(Cc1ccccc1)Oc1ccc2cc(-c3cnc(-c4cn(Cc5ccccc5)c5ccccc45)o3)ccc2c1 (stereo not given), which melting point is on record?
A: 125 to 127 °C

Q: For CCOP(=O)(OCC)c1ccc(N)cc1, which melting point is on record?
A: 112 to 116 °C

Q: For CC(CCCC(C)(C)C)C1CCC2C3C(=O)C=C4CC(O)CCC4(C)C3CCC12C (stereo not given), which melting point is on record?
A: 176 to 178 °C

Q: For COc1ncc(-c2ccccc2)c(C(=O)N(C)Cc2cc(C(F)(F)F)cc(C(F)(F)F)c2)n1, which melting point is on record?
A: 97.5 to 98.5 °C

Q: Which melting point does the source give for CC(C(=O)OC12CC3CC(CC(C3)C1)C2)c1ccc2nc(N)sc2c1 (stereo not given) here?
A: 151 to 153 °C

Q: For Cc1ccc(S(=O)(=O)c2ccccc2[N+](=O)[O-])cc1, which melting point is on record?
A: 155 to 156 °C

Q: Which melting point does the source give for O=C(O)Cc1c(C(=O)c2ccc3c(c2)OCCO3)[nH]c2ccc(C(F)(F)F)cc12 here?
A: > 250 °C

Q: For COc1cc2nc(N3CCN(C(=O)C4CCCCC4)CC3)nc(N)c2cc1OC, which melting point is on record?
A: 223 to 225 °C

Q: With Cc1cc(-c2nn(CC(C)C)c(=O)c(O)c2C)ccc1F as the compound, how does the melting point read?
A: 107 to 110 °C

Q: Which melting point does the source give for Cc1cc2c(cc1C)C(C)(C)N(Cc1ccccc1)C2(C)C here?
A: 98 to 100 °C

Q: Which melting point does the source give for CC(C=CCC(C)(O)CO)C1CCC2C(O)CCCC12C (stereo not given) here?
A: 87 to 88 °C

Q: Which melting point does the source give for Oc1cccc2ccc3cccnc3c12 here?
A: 104 °C

Q: Which melting point does the source give for COc1ccc(C(=O)CCC(=O)O)cc1NC(C)=O here?
A: 184 to 185 °C

Q: Which melting point does the source give for COc1c(C2CCN(CCCCNC(=O)c3oc(-c4ccc(C#N)cc4)nc3CO)CC2)ccc2c1CCCC2 here?
A: 160 to 162 °C

Q: With COc1cc([N+](=O)[O-])c2nccc(C)c2c1OCCCc1ccccc1 as the compound, how does the melting point read?
A: 100 to 102 °C

Q: For CCOC(=O)c1cnc2c(F)c(F)c(F)cc2c1Cl, which melting point is on record?
A: 110 to 112 °C
